Assay in all cases: HPLC-RI of hydrolysis products
Assay type in all cases: biochemical

The target of test [1] is T1, BAD0423 (Bifidobacterium adolescentis, UniProt A1A0H1).
T1 construct: gene BAD_0423; full length, N-terminal His-tag (pET28a), no signal peptide, E. coli BL21(DE3), TALON purified
T1 sequence (A1A0H1 1-564): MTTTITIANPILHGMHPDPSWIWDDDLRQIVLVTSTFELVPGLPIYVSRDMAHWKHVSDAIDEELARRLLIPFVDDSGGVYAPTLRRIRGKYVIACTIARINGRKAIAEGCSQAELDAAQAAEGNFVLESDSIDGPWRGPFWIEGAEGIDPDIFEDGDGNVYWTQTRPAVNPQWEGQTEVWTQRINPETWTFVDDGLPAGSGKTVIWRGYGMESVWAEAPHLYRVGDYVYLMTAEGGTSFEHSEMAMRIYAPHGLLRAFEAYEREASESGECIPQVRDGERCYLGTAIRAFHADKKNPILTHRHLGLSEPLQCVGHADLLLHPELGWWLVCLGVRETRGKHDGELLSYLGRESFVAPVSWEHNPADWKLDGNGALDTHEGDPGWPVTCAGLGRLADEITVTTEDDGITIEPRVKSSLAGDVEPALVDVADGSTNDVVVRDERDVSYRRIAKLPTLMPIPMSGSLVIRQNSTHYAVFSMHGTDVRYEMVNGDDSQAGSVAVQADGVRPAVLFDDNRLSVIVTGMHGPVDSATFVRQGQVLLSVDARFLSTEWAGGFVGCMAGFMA
To be noted: 10 mM substrate, 50 μg/mL enzyme, 20 mM sodium phosphate pH 6.5, 37 °C, 1 h; products xylose and xylobiose.

Test [2] has as its target T2, BAD1527 (Bifidobacterium adolescentis, UniProt A1A3M5).
T2 construct: gene xynD; full length, N-terminal His-tag (pET28a), no signal peptide, E. coli BL21(DE3), TALON purified
T2 sequence (A1A3M5 1-345): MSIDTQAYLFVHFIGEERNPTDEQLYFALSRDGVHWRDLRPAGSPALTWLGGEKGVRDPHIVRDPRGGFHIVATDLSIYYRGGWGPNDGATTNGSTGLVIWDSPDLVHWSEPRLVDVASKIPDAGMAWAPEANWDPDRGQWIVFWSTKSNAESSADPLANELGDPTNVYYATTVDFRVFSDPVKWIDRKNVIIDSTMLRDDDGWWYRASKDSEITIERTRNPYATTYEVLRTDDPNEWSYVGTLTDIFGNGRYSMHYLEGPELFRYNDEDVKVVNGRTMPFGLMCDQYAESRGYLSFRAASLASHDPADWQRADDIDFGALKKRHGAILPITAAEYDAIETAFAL
To be noted: 10 mM substrate, 50 μg/mL enzyme, 20 mM sodium phosphate pH 6.5, 37 °C, 1 h; weak substrate.

Test [3] concerns the target T3, BAD0428 (Bifidobacterium adolescentis, UniProt A1A0H6).
T3 construct: gene xynB; full length, N-terminal His-tag (pET28a), no signal peptide, E. coli BL21(DE3), TALON purified
T3 sequence (A1A0H6 1-543): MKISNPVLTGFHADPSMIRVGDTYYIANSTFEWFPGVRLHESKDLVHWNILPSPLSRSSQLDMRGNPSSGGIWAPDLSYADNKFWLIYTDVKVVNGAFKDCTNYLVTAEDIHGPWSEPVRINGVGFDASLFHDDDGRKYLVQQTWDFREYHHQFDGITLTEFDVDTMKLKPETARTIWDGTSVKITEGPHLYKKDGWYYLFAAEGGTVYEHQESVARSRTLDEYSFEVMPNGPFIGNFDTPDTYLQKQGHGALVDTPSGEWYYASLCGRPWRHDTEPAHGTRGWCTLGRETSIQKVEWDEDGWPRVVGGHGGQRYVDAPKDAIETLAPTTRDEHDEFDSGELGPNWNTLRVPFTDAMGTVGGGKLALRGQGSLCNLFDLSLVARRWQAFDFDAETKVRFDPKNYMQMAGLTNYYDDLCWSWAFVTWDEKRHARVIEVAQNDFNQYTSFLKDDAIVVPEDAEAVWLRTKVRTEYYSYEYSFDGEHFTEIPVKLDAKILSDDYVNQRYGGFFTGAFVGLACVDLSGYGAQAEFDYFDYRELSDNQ
To be noted: 10 mM substrate, 50 μg/mL enzyme, 20 mM sodium phosphate pH 6.5, 37 °C, 1 h; product xylose.

Turning to `OC1OC[C@@H](O[C@@H]2OC[C@@H](O)[C@H](O[C@@H]3OC[C@@H](O)[C@H](O)[C@H]3O)[C@H]2O)[C@H](O)[C@H]1O` (stereo partly drawn) [DX3, 2^3-β-D-xylosyl-xylobiose], the specific activity entry in test [1] was “BAD0423 showed low activities on X2 and X3 but high activity on DX3”; in test [2], “specific activity of BAD0423, BAD0428, and BAD1527 on DX3 was determined by HPLC”; in test [3], “specific activity of BAD0423, BAD0428, and BAD1527 on DX3 was determined by HPLC”.

Values taken from publication PMC7142710, “Identification of a Key Enzyme for the Hydrolysis of β-(1→3)-Xylosyl Linkage in Red Alga Dulse Xylooligosaccharide from Bifidobacterium Adolescentis” (Marine Drugs, 2020).
